Assay results as given in the supplement of paper PMC10307832.

Columns and labels:
Assay in all cases: relative viability (nuclei count vs DMSO), 5 days (fraction); higher = more cells survive
NCI-H1666 = tested on: NCI-H1666
Procedure, shortened: (§1)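 Relative viability was taken as the ratio of nuclei in treated wells to nuclei in vehicle wells. Lung cancer cell lines in 1536-well plates received compounds by pin tool one day after seeding, either one drug alone or a fixed anchor-drug dose plus five library-drug doses (not always all listed) in √10 steps. Nuclei were counted on 4× images after 5 days of treatment, and values are medians of duplicate plates.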

NCI-H1703 = tested on: NCI-H1703
Procedure, shortened: as §1

NCI-H1755 = tested on: NCI-H1755
Procedure, shortened: as §1

NCI-H650 = tested on: NCI-H650
Procedure, shortened: as §1

A549 = tested on: A549
Procedure, shortened: as §1

NCI-H1650 = tested on: NCI-H1650
Procedure, shortened: as §1

IA-LM = tested on: IA-LM
Procedure, shortened: as §1

NCI-H1299 = tested on: NCI-H1299
Procedure, shortened: as §1

EBC-1 = tested on: EBC-1
Procedure, shortened: as §1

Calu-6 = tested on: Calu-6
Procedure, shortened: as §1

Q: Which relative viability (NCI-H1666; first compound 0.08 µM) does the source give for C=C1C(=O)O[C@@H](CCCCCCCC)[C@@H]1C(=O)O [C-75] + NC(=O)Nc1cc(-c2cccc(F)c2)sc1C(=O)N[C@H]1CCCNC1 [AZD7762] (partner 0.2 µM) here?
A: 0.801

Q: What about the relative viability (NCI-H1666; first compound 0.253 µM) of the same molecule?
A: 0.955

Q: And the relative viability (NCI-H1666; first compound 0.8 µM)?
A: 0.725

Q: What about the relative viability (NCI-H1666; first compound 2.53 µM) of the same molecule?
A: 0.657

Q: And the relative viability (NCI-H1666; first compound 8 µM)?
A: 0.708

Q: What about the relative viability (NCI-H1703; first compound 0.08 µM) of the same molecule?
A: 0.125

Q: What about the relative viability (NCI-H1703; first compound 0.253 µM) of the same molecule?
A: 0.126

Q: What about the relative viability (NCI-H1703; first compound 0.8 µM) of the same molecule?
A: 0.115

Q: And the relative viability (NCI-H1703; first compound 8 µM)?
A: 0.149

Q: And the relative viability (NCI-H1755; first compound 0.08 µM)?
A: 0.42

Q: What about the relative viability (NCI-H1755; first compound 0.253 µM) of the same molecule?
A: 0.473

Q: What about the relative viability (NCI-H1755; first compound 0.8 µM) of the same molecule?
A: 0.397

Q: And the relative viability (NCI-H1755; first compound 2.53 µM)?
A: 0.405

Q: What about the relative viability (NCI-H1755; first compound 8 µM) of the same molecule?
A: 0.416

Q: What about the relative viability (NCI-H650; first compound 0.08 µM) of the same molecule?
A: 0.935

Q: And the relative viability (NCI-H650; first compound 0.253 µM)?
A: 0.796

Q: And the relative viability (NCI-H650; first compound 0.8 µM)?
A: 1.01

Q: What about the relative viability (NCI-H650; first compound 2.53 µM) of the same molecule?
A: 0.81

Q: What about the relative viability (NCI-H650; first compound 8 µM) of the same molecule?
A: 1.02

Q: Oc1nc(-c2ccc(C(F)(F)F)cc2)nc2c1CSCC2 [XAV939] + NC(=O)Nc1cc(-c2cccc(F)c2)sc1C(=O)N[C@H]1CCCNC1 [AZD7762] (partner 0.2 µM) was tested. Which relative viability (NCI-H1666; first compound 0.08 µM) did it give?
A: 0.885

Q: What about the relative viability (NCI-H1666; first compound 0.253 µM) of the same molecule?
A: 0.656

Q: And the relative viability (NCI-H1666; first compound 0.8 µM)?
A: 0.735

Q: And the relative viability (NCI-H1666; first compound 2.53 µM)?
A: 0.621

Q: What about the relative viability (NCI-H1703; first compound 0.08 µM) of the same molecule?
A: 0.156

Q: And the relative viability (NCI-H1703; first compound 0.253 µM)?
A: 0.137

Q: What about the relative viability (NCI-H1703; first compound 0.8 µM) of the same molecule?
A: 0.138

Q: And the relative viability (NCI-H1703; first compound 2.53 µM)?
A: 0.111

Q: And the relative viability (NCI-H1755; first compound 0.08 µM)?
A: 0.394

Q: What about the relative viability (NCI-H1755; first compound 0.253 µM) of the same molecule?
A: 0.501

Q: What about the relative viability (NCI-H1755; first compound 0.8 µM) of the same molecule?
A: 0.443

Q: And the relative viability (NCI-H1755; first compound 2.53 µM)?
A: 0.458

Q: What about the relative viability (NCI-H650; first compound 0.08 µM) of the same molecule?
A: 1.04

Q: And the relative viability (NCI-H650; first compound 0.253 µM)?
A: 0.809

Q: What about the relative viability (NCI-H650; first compound 0.8 µM) of the same molecule?
A: 1.02

Q: What about the relative viability (NCI-H650; first compound 2.53 µM) of the same molecule?
A: 0.773

Q: Which relative viability (A549; first compound 0.08 µM) does the source give for C=C1C(=O)O[C@@H](CCCCCCCC)[C@@H]1C(=O)O [C-75] + Nc1ncn([C@H]2C[C@H](O)[C@@H](CO)O2)c(=O)n1 [Decitabine] (partner 2 µM) here?
A: 0.27

Q: What about the relative viability (A549; first compound 0.253 µM) of the same molecule?
A: 0.255

Q: What about the relative viability (A549; first compound 0.8 µM) of the same molecule?
A: 0.273

Q: And the relative viability (A549; first compound 2.53 µM)?
A: 0.35

Q: What about the relative viability (A549; first compound 8 µM) of the same molecule?
A: 0.215

Q: And the relative viability (NCI-H1666; first compound 0.08 µM)?
A: 0.741

Q: What about the relative viability (NCI-H1666; first compound 0.253 µM) of the same molecule?
A: 0.786

Q: And the relative viability (NCI-H1666; first compound 0.8 µM)?
A: 0.709

Q: What about the relative viability (NCI-H1666; first compound 2.53 µM) of the same molecule?
A: 0.638

Q: And the relative viability (NCI-H1666; first compound 8 µM)?
A: 0.678

Q: And the relative viability (NCI-H1755; first compound 0.08 µM)?
A: 0.683

Q: What about the relative viability (NCI-H1755; first compound 0.253 µM) of the same molecule?
A: 0.713

Q: And the relative viability (NCI-H1755; first compound 0.8 µM)?
A: 0.684

Q: What about the relative viability (NCI-H1755; first compound 2.53 µM) of the same molecule?
A: 0.646

Q: And the relative viability (NCI-H1755; first compound 8 µM)?
A: 0.681

Q: What about the relative viability (NCI-H1650; first compound 0.08 µM) of the same molecule?
A: 0.362

Q: What about the relative viability (NCI-H1650; first compound 0.253 µM) of the same molecule?
A: 0.384

Q: And the relative viability (NCI-H1650; first compound 0.8 µM)?
A: 0.453

Q: What about the relative viability (NCI-H1650; first compound 8 µM) of the same molecule?
A: 0.387

Q: And the relative viability (NCI-H650; first compound 0.08 µM)?
A: 0.315

Q: What about the relative viability (NCI-H650; first compound 0.253 µM) of the same molecule?
A: 0.35

Q: And the relative viability (NCI-H650; first compound 0.8 µM)?
A: 0.329

Q: What about the relative viability (NCI-H650; first compound 2.53 µM) of the same molecule?
A: 0.294

Q: What about the relative viability (NCI-H650; first compound 8 µM) of the same molecule?
A: 0.403

Q: With C=C1C(=O)O[C@@H](CCCCCCCC)[C@@H]1C(=O)O [C-75] + O=C(c1cc(Cc2n[nH]c(=O)c3ccccc23)ccc1F)N1CCN(C(=O)C2CC2)CC1 [Olaparib] (partner 8 µM) as the molecule, how does the relative viability (A549; first compound 0.08 µM) read?
A: 0.394

Q: And the relative viability (A549; first compound 0.253 µM)?
A: 0.497

Q: What about the relative viability (A549; first compound 0.8 µM) of the same molecule?
A: 0.216

Q: And the relative viability (A549; first compound 2.53 µM)?
A: 0.128

Q: And the relative viability (A549; first compound 8 µM)?
A: 0.251

Q: And the relative viability (IA-LM; first compound 0.08 µM)?
A: 0.803

Q: What about the relative viability (IA-LM; first compound 0.253 µM) of the same molecule?
A: 0.885

Q: What about the relative viability (IA-LM; first compound 0.8 µM) of the same molecule?
A: 0.788

Q: And the relative viability (IA-LM; first compound 2.53 µM)?
A: 0.761

Q: What about the relative viability (IA-LM; first compound 8 µM) of the same molecule?
A: 0.767

Q: What about the relative viability (NCI-H1299; first compound 0.08 µM) of the same molecule?
A: 0.946

Q: What about the relative viability (NCI-H1299; first compound 0.253 µM) of the same molecule?
A: 0.976

Q: And the relative viability (NCI-H1299; first compound 0.8 µM)?
A: 0.974

Q: What about the relative viability (NCI-H1299; first compound 2.53 µM) of the same molecule?
A: 0.93

Q: And the relative viability (NCI-H1299; first compound 8 µM)?
A: 0.924

Q: What about the relative viability (EBC-1; first compound 0.08 µM) of the same molecule?
A: 0.62

Q: And the relative viability (EBC-1; first compound 0.253 µM)?
A: 0.807

Q: What about the relative viability (EBC-1; first compound 0.8 µM) of the same molecule?
A: 0.692

Q: What about the relative viability (EBC-1; first compound 2.53 µM) of the same molecule?
A: 0.613

Q: What about the relative viability (EBC-1; first compound 8 µM) of the same molecule?
A: 0.536

Q: And the relative viability (NCI-H1666; first compound 0.08 µM)?
A: 0.681

Q: What about the relative viability (NCI-H1666; first compound 0.253 µM) of the same molecule?
A: 0.79

Q: And the relative viability (NCI-H1666; first compound 0.8 µM)?
A: 0.678

Q: What about the relative viability (NCI-H1666; first compound 8 µM) of the same molecule?
A: 0.653

Q: What about the relative viability (NCI-H1703; first compound 0.08 µM) of the same molecule?
A: 0.416

Q: And the relative viability (NCI-H1703; first compound 0.253 µM)?
A: 0.391

Q: And the relative viability (NCI-H1703; first compound 0.8 µM)?
A: 0.348

Q: And the relative viability (NCI-H1703; first compound 2.53 µM)?
A: 0.441

Q: And the relative viability (NCI-H1703; first compound 8 µM)?
A: 0.432

Q: And the relative viability (Calu-6; first compound 0.08 µM)?
A: 0.558

Q: And the relative viability (Calu-6; first compound 0.253 µM)?
A: 0.576

Q: What about the relative viability (Calu-6; first compound 0.8 µM) of the same molecule?
A: 0.522

Q: And the relative viability (Calu-6; first compound 2.53 µM)?
A: 0.489

Q: What about the relative viability (Calu-6; first compound 8 µM) of the same molecule?
A: 0.469

Q: And the relative viability (NCI-H1755; first compound 0.08 µM)?
A: 0.93

Q: And the relative viability (NCI-H1755; first compound 0.253 µM)?
A: 0.872

Q: What about the relative viability (NCI-H1755; first compound 0.8 µM) of the same molecule?
A: 0.847

Q: What about the relative viability (NCI-H1755; first compound 2.53 µM) of the same molecule?
A: 0.797

Q: And the relative viability (NCI-H1755; first compound 8 µM)?
A: 0.846

Q: What about the relative viability (NCI-H1650; first compound 0.08 µM) of the same molecule?
A: 0.802

Q: And the relative viability (NCI-H1650; first compound 0.253 µM)?
A: 0.878

Q: What about the relative viability (NCI-H1650; first compound 0.8 µM) of the same molecule?
A: 0.827

Q: What about the relative viability (NCI-H1650; first compound 8 µM) of the same molecule?
A: 0.818

Q: What about the relative viability (NCI-H650; first compound 0.08 µM) of the same molecule?
A: 0.397

Q: And the relative viability (NCI-H650; first compound 0.253 µM)?
A: 0.438

Q: What about the relative viability (NCI-H650; first compound 0.8 µM) of the same molecule?
A: 0.457

Q: And the relative viability (NCI-H650; first compound 2.53 µM)?
A: 0.397

Q: What about the relative viability (NCI-H650; first compound 8 µM) of the same molecule?
A: 0.4
